In US4203253A, “Process for increasing oleoresin synthesis in pinus species” (priority 1979, dated 1980):
Where two headings read alike, the source gives them in different places.

Assays:
[1] = system: endogenous ethylene production; details: systemically applied; cited from earlier work
[2] = system: rats; details: cited from earlier work
[3] = system: slash pine (Pinus elliottii Engelm. var. elliottii); format: in vivo; details: for Rosin yield: 6 months, extracted dry weight
Protocol: (§1) On Sept. 14, 1973, replicate slash pine (Pinus elliottii Engelm. var. elliottii) were treated with 5 milliliters of either 1 percent (wt.) paraquat, 1 percent (wt.) diquat, 1percent (wt.) diquat plus 5 percent (wt.) 2-chloroethylphosphonic acid or 5 percent (wt.) 2-chloroethylphosphonic acid solutions placed in a bore hole. Each type of treatment was applied to 25 trees selected at random. One tree from each treatment was cut in January 1974. […] Six trees from each treatment were cut in March of 1974, approximately 6 months after treatment.

[4] = system: slash pine (Pinus elliottii Engelm. var. elliottii); format: in vivo; details: 0% 2-chloroethylphosphonic acid, 1.6 years
[5] = system: slash pine (Pinus elliottii Engelm. var. elliottii); test: Average lightwood heights in slash pines (Example V, Table V); format: in vivo; details: for Average lightwood height: 0% 2-chloroethylphosphonic acid
Protocol: On October 6 and 7, 1975, a study was begun using replicate slash pine (Pinus elliottii Engelm. var. elliottii) to explore the action of 2-chloroethylphosphonic acid in combination with diquat and/or paraquat. Each tree in the study was treated three times. The first treatment was in October in 1975, the second in March of 1976, and the third in September of 1976. Each time 5 milliliters of a solution of 2-chloroethylphosphonic acid plus paraquat and/or diquat were applied to the tree in a bore hole angled to intersect approximately one-sixth of the trunk. After treatment, the bore hole was stoppered to prevent the escape of ethylene. The trees were cut during November and December of 1976.
^a Measured from point of treatment application.

[6] = system: slash pine (Pinus elliottii Engelm. var. elliottii); test: Oleoresin content and visible lightwood height in slash pines 26 months after treatment (Example IV, Table IV); format: in vivo; details: for Oleoresin content / Oleoresin content, average per unit total volume: 26 months; for Oleoresin content: extracted dry weight; for Visible lightwood height: 26 months after treatment
Protocol: as §1

[7] = system: mice; details: asphyxiation by exclusion of oxygen; cited from earlier work
[8] = system: slash pine (Pinus elliottii Engelm. var. elliottii); test: Percent oleoresin in slash pine 2 1/2 years after treatment (Example II, Table II); format: in vivo; details: for Percent oleoresin: dry weight of section
Protocol: Replicate 40-year-old-slash pine (Pinus elliottii Engelm. var. elliottii) were treated with 5-milliliter aliquotes of 5 percent 2-chloroethylphosphonic acid in bore holes 0.6 meter above the ground. The trees were harvested in March, 1976, 21/2 years after treatment. Analysis of total extractives was made for given portions of the bole beginning 0.5 meter below the point of treatment application (Table II).
^a Percentage based on the dry weight of that section of the tree.
^b Control trees were wounded and treated with water.

[9] = system: red pine (Pinus resinosa); test: Nonvolatile extractives and dry weight of treated red pine (Example I, Table I); format: in vivo; details: for Nonvolatile extractives, entire cross section: extracted dry weight
Excerpt: Replicate 20-year-old plantation-grown red pine (Pinus resinosa) of a given diameter class were coned with a watertight cup. Three-hundred milliliters of 2-chloroethylphosphonic acid in various concentrations were placed in the cups, and shallow cuts one-third the circumference were made with a chisel into the xylem portion of the bole under the solution, at approximately 1.5 meters above the ground level. The treatment solution was normally adsorbed within a 24-hour period; this depended, however, on climatic conditions such as temperature and relative humidity. Trees were sacrificed 6 months after treatment and analyzed for nonvolatile extractives at given distances from the point of application, over the entire cross-section of the tree, except where noted (Table I).
^a Trees treated 5/26/76 and harvested 11/2/76. Each tree received 30
milliliters of the indicated concentration of 2chloroethylphosphonic acid
^b Distance in cm from point of treatment application.
^c Ovendry weight/fresh weight.
^d Percentage nonvolatile extractives based on the extracted dry
weight of a sample of the entire cross section.
^e Weight percentage 2chloroethylphosphonic acid in 300 milliliters o
the aqueous treatment solution.
^f Percentage nonvolatile extractives isolated from the visible
lightwood portion of each cross section based on the extracted dry weight
basis of the visible lightwood portion of each cross section.
^g Control trees were wounded and treated with water in the same
manner as the 2chloroethylphosphonic acidtreated trees.

[10] = cited from earlier work
[11] = bipyridilium 0.5% (wt) in total
[12] = distance above wound printed "0.05" m
[13] = 0.213 wt%, distance printed "+="
[14] = 1.064 wt%, distance "30." [sic]

C[n+]1ccc(-c2cc[n+](C)cc2)cc1 [paraquat]
endogenous ethylene production [1]: marked stimulation of endogenous ethylene production
respiration rates [1]: rapid increase in respiration rates
LD50 dosage [2]: 100 mg/kg
Rosin yield ([3]; 0 m above wound): 8.1 Pct
Rosin yield ([3]; 0.5 m above wound): 2.0 Pct
Height of oleoresin soaked wood (visible lightwood) ([3]; cut March 1974, approximately 6 months): less than in diquat-treated trees
Extractive content in total merchantable length ([4]; bipyridilium 0.5% (wt)): 14.8 lbs. extractives per average tree
Extractive content in total merchantable length ([4]; bipyridilium 2% (wt)): 17.1 lbs. extractives per average tree
Average lightwood height [5, 11]: 1.4 meters
Average lightwood height ([5]; bipyridilium 2% (wt) in total): 2.8 meters
Oleoresin content ([6]; 0.5-1 m above wound): 12.2%
Oleoresin content ([6]; 1-1.5 m above wound): 5.9%
Oleoresin content ([6]; 1.5-2.5 m above wound): 3.7%
Oleoresin content ([6]; 2.5-4.5 m above wound): 2.4%
Oleoresin content ([6]; 4.5-6.5 m above wound): 2.0%
Visible lightwood height [6]: ≤ 2 meters
Oleoresin content, average per unit total volume [6]: 4.6%
Oleoresin content [6, 12]: 10.7%

CCCN [n-propylamine]
LD50 dosage [2]: 560 mg/kg

C=C [ethylene]
toxic concentration of gaseous ethylene [7]: 950,000 ppm

c1cc[n+]2c(c1)-c1cccc[n+]1CC2 [diquat]
LD50 dosage [2]: 100 mg/kg
Rosin yield ([3]; 0 m above wound): 5.5 Pct
Rosin yield ([3]; 0.5 m above wound): 2.1 Pct
Rosin yield ([3]; 1 m above wound): 2.3 Pct
Height of oleoresin soaked wood (visible lightwood) ([3]; in vivo): less than diquat plus 2-chloroethylphosphonic acid-treated trees
Extractive content in total merchantable length ([4]; bipyridilium 0.5% (wt)): 15.2 lbs. extractives per average tree
Extractive content in total merchantable length ([4]; bipyridilium 2% (wt)): 17.3 lbs. extractives per average tree
Average lightwood height [5, 11]: 1.8 meters
Average lightwood height ([5]; bipyridilium 2% (wt) in total): 3.1 meters
Oleoresin content ([6]; 0.5-1 m above wound): 9.6%
Oleoresin content ([6]; 1-1.5 m above wound): 4.5%
Oleoresin content ([6]; 1.5-2.5 m above wound): 3.5%
Oleoresin content ([6]; 2.5-4.5 m above wound): 2.8%
Oleoresin content ([6]; 4.5-6.5 m above wound): 1.9%
Visible lightwood height [6]: 2.5-3 meters
Oleoresin content, average per unit total volume [6]: 4.1%
Oleoresin content [6, 12]: 8.9%

O=P(O)(O)CCCl [2-chloroethylphosphonic acid]
Percent oleoresin ([8]; 5% (wt), 0-3 m from application, 2 1/2 years): 4.3%
Percent oleoresin ([8]; 5% (wt), 3-6 m from application, 2 1/2 years): 3.7%
Percent oleoresin ([8]; 5% (wt), above 6 m from application, 2 1/2 years): 3.1%
Percent oleoresin, average ([8]; 5% (wt), average, dry weight, 2 1/2 years): 3.6%
Visible lightwood ([8]; 5 percent, 2 1/2 years after treatment): No visible lightwood was observed
Distance holding most of the increase in oleoresin production ([8]; 5 percent, 5 ml in bore holes): 0-3 meters
Increase of volatile versus nonvolatile oleoresins ([8]; 5 percent, 5 ml in bore holes): A greater increase in the volatile (turpentine) than in the nonvolatile (resin) oleoresins
LD50 dosage [2]: 4,229 mg/kg
Dry weight (ovendry weight/fresh weight) ([9]; 0.0213 wt%, +15 cm from application): 44.5 Pct
Nonvolatile extractives, entire cross section ([9]; 0.0213 wt%, +15 cm): 3.7 Pct
Dry weight (ovendry weight/fresh weight) ([9]; 0.0213 wt%, +50 cm from application): 46.6 Pct
Nonvolatile extractives, entire cross section ([9]; 0.0213 wt%, +50 cm): 3.4 Pct
Dry weight (ovendry weight/fresh weight) ([9]; 0.0213 wt%, -15 cm from application): 43.1 Pct
Nonvolatile extractives, entire cross section ([9]; 0.0213 wt%, -15 cm): 3.1 Pct
Dry weight (ovendry weight/fresh weight) ([9]; 0.213 wt%, +15 cm from application): 44.8 Pct
Nonvolatile extractives, entire cross section ([9]; 0.213 wt%, +15 cm): 3.2 Pct
Dry weight (ovendry weight/fresh weight) ([9]; 0.213 wt%, -15 cm from application): 45.5 Pct
Nonvolatile extractives, entire cross section ([9]; 0.213 wt%, -15 cm): 3.4 Pct
Dry weight (ovendry weight/fresh weight) [9, 13]: 46.5 Pct
Nonvolatile extractives, entire cross section [9, 13]: 3.4 Pct
Increase of extractive content versus water-treated controls ([9]; 1.064 percent (wt.), red pine, 6 months): Doubling of the extractive content
Dry weight (ovendry weight/fresh weight) ([9]; 1.064 wt%, +50 cm from application): 56.7 Pct
Nonvolatile extractives, entire cross section ([9]; 1.064 wt%, +50 cm): 7.2 Pct
Nonvolatile extractives, visible lightwood portion ([9]; 1.064 wt%, +50 cm): 18.8 Pct
Dry weight (ovendry weight/fresh weight) ([9]; 1.064 wt%, +110 cm from application): 50.3 Pct
Nonvolatile extractives, entire cross section ([9]; 1.064 wt%, +110 cm): 3.4 Pct
Dry weight (ovendry weight/fresh weight) ([9]; 1.064 wt%, +150 cm from application): 50.1 Pct
Nonvolatile extractives, entire cross section ([9]; 1.064 wt%, +150 cm): 3.8 Pct
Dry weight (ovendry weight/fresh weight) ([9]; 1.064 wt%, -15 cm from application): 54.1 Pct
Nonvolatile extractives, entire cross section ([9]; 1.064 wt%, -15 cm): 4.0 Pct
Dry weight (ovendry weight/fresh weight) [9, 14]: 58.9 Pct
Nonvolatile extractives, entire cross section [9, 14]: 6.2 Pct
Nonvolatile extractives, visible lightwood portion [9, 14]: 9.3 Pct
Dry weight (ovendry weight/fresh weight) ([9]; 2.127 wt%, +15 cm from application): 67.8 Pct
Nonvolatile extractives, entire cross section ([9]; 2.127 wt%, +15 cm): 3.1 Pct
Dry weight (ovendry weight/fresh weight) ([9]; 2.127 wt%, +50 cm from application): 69.7 Pct
Nonvolatile extractives, entire cross section ([9]; 2.127 wt%, +50 cm): 3.1 Pct
Dry weight (ovendry weight/fresh weight) ([9]; 2.127 wt%, -15 cm from application): 66.5 Pct
Nonvolatile extractives, entire cross section ([9]; 2.127 wt%, -15 cm): 5.4 Pct
Change in dry weight percentage (oven dry weight/fresh weight) ([9]; treated trees, dehydration): increase in dry weight percentage
Increase in extractives in visibly lightered portions versus control trees ([9]; visible lightering portions of cross section): three to six times that of control trees
Rosin yield ([3]; 0 m above wound): 2.6 Pct
Stimulation of visible lightwood formation ([3]; 5 percent (wt.) alone, approximately 6 months): did not stimulate visible lightwood formation
pH of a typical aqueous solution ([10]; typical aqueous solution): 1.0 pH
pH above which hydrolysis begins and ethylene is released ([10]; xylem transport system of the tree): > 5 pH
Effect on lightwood stimulation by diquat and paraquat ([5]; Example V combinations): increases the lightwood stimulating effects of diquat and paraquat
